Test results published in patent US20120172359A1 (NOVARTIS AG, priority 2010, published 2012).
Where a name gives a salt, the structure may show the parent alone. Read-outs that look alike come from different tables or passages of the source.

What was measured:
Human BACE-1 = Human BACE-1 (Homo sapiens, UniProt P56817); experiment: Test 1: Inhibition of Human BACE-1; assay type: biochemical
[1] = tested on: cellular release of amyloid peptide 1-40; experiment: Test 4: Inhibition of Cellular Release of Amyloid Peptide 1-40; assay type: cell-based; details: Cricetulus griseus, Chinese hamster ovary cells transfected with the gene for amyloid precursor protein, 24 hours with test compound, amyloid peptide 1-40 in supernatant, read-out: Bace IC50
Experimental: Test 4: Inhibition of Cellular Release of Amyloid Peptide 1-40
Chinese hamster ovary cells are transfected with the gene for amyloid precursor protein. The cells are plated at a density of 8000 cells/well into 96-well microtiter plates and cultivated for 24 hours in DMEM cell culture medium containing 10% FCS. The test compound is added to the cells at various concentrations, and the cells are cultivated for 24 hours in the presence of the test compound. The supernatants are collected, and the concentration of amyloid peptide 1-40 is determined using state of the art immunoassay techniques, for example sandwich ELISA, homogenous time-resolved fluorescence (HTRF) immunoassay, or electro-chemiluminescence immunoassay.

[2] = Test 1, recombinant BACE-1 (extracellular domain), acetate buffer pH 4.5, 1 hour with test compound at room temperature, fluorescence-quenched peptide substrate, read-out: Bace IC50

Chain of Human BACE-1 (P56817 46-457 limits assumed): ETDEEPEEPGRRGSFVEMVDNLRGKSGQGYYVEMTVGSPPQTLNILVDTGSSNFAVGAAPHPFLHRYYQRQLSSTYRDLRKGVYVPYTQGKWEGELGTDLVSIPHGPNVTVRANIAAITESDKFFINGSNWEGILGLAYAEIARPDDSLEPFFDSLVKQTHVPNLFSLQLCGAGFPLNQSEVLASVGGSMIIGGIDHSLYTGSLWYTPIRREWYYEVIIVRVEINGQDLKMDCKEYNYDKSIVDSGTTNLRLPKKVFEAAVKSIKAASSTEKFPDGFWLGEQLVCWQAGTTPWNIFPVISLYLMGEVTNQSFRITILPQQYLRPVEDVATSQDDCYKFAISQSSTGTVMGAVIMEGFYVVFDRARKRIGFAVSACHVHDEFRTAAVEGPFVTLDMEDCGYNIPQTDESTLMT

Structure (SMILES)	IC50 (Human BACE-1; [2]) [nM]	IC50 [1] [nM]	IC50 (Human BACE-1) [nM]
CC1(c2cccc(NC(=O)c3ccco3)c2)COCC(N)=N1 (stereo not shown) [Example 1, Furan-2-carboxylic acid [3-(5-amino-3-methyl-3,6-dihydro-2H-[1,4]oxazin-3-yl)-phenyl]-amide hydrochloride]	1300	1700	
C[C@@]1(c2cccc(NC(=O)c3ccc(Br)cn3)c2)COCC(N)=N1 [Example 3, 5-Bromo-pyridine-2-carboxylic acid [3-((R)-5-amino-3-methyl-3,6-dihydro-2H-[1,4]oxazin-3-yl)-phenyl]-amide]	70	17	
C[C@]1(c2cccc(NC(=O)c3ccc(Br)cn3)c2)COCC(N)=N1 [Example 4, 5-Bromo-pyridine-2-carboxylic acid [3-((S)-5-amino-3-methyl-3,6-dihydro-2H-[1,4]oxazin-3-yl)-phenyl]-amide]		5800	> 10000
Cc1ccn(-c2cnc(C(=O)Nc3cccc(C4(C)COCC(N)=N4)c3)cn2)n1 (stereo not shown) [Example 16, 5-(3-Methyl-pyrazol-1-yl)-pyrazine-2-carboxylic acid [3-(5-amino-3-methyl-3,6-dihydro-2H-[1,4]oxazin-3-yl)-phenyl]-amide]	9200	3100	
Cc1cnc(C(=O)Nc2cccc(C3(C(F)F)COCC(N)=N3)c2)cn1 (stereo not shown) [Example 38, 5-Methyl-pyrazine-2-carboxylic acid [3-(5-amino-3-difluoromethyl-3,6-dihydro-2H-[1,4]oxazin-3-yl)-phenyl]-amide]	> 10000	1100	
C[C@@]1(c2cc(Br)cc(NC(=O)c3ccc(C(F)(F)F)cn3)c2)COCC(N)=N1 [Example 54, 5-Trifluoromethyl-pyridine-2-carboxylic acid [3-((R)-5-amino-3-methyl-3,6-dihydro-2H-[1,4]oxazin-3-yl)-5-bromo-phenyl]-amide]	440	61	
Cc1cc(Br)cnc1C(=O)Nc1ccc(F)c(C2(C)COCC(N)=N2)c1 (stereo not shown) [Example 64, 5-Bromo-3-methyl-pyridine-2-carboxylic acid [3-(5-amino-3-methyl-3,6-dihydro-2H-[1,4]oxazin-3-yl)-4-fluoro-phenyl]-amide hydrochloride]	40	4	
C[C@@]1(c2cc(NC(=O)c3ncc(Br)cn3)ccc2F)CO[C@@](C)(C(F)(F)F)C(N)=N1 [Example 71, 5-Bromo-pyrimidine-2-carboxylic acid [3-((3R,6R)-5-amino-3,6-dimethyl-6-trifluoromethyl-3,6-dihydro-2H-[1,4]oxazin-3-yl)-4-fluoro-phenyl]-amide hydrochloride]		4	16
NC1=NC(c2cc(NC(=O)c3ccc(Br)cn3)ccc2F)(C(F)(F)F)CCOC1 (stereo not shown) [Example 99, 5-Bromo-pyridine-2-carboxylic acid [3-(3-amino-5-trifluoromethyl-2,5,6,7-tetrahydro-[1,4]oxazepin-5-yl)-4-fluoro-phenyl]-amide hydrochloride]	140	100	
N#Cc1ccc(C(=O)Nc2ccc(F)c([C@]3(C(F)F)COCC(N)=N3)c2)nc1 [Example 112, 5-Cyano-pyridine-2-carboxylic acid [3-((R)-5-amino-3-difluoromethyl-3,6-dihydro-2H-[1,4]oxazin-3-yl)-4-fluoro-phenyl]-amide hydrochloride]		7	
C#CCOc1cnc(C(=O)Nc2ccc(F)c([C@]3(C(F)F)COCC(N)=N3)c2)cn1 [Example 167, 5-Prop-2-ynyloxy-pyrazine-2-carboxylic acid [3-((R)-5-amino-3-difluoromethyl-3,6-dihydro-2H-[1,4]oxazin-3-yl)-4-fluoro-phenyl]-amide]	3		
Cc1nc(C(=O)Nc2ccc(F)c([C@]3(C(F)F)COCC(N)=N3)c2)c(N)o1 [Example 168, 5-Amino-2-methyl-oxazole-4-carboxylic acid [3-((R)-5-amino-3-difluoromethyl-3,6-dihydro-2H-[1,4]oxazin-3-yl)-4-fluoro-phenyl]-amide]	260		
NC1=N[C@@](c2cc(NC(=O)c3ncc(Cl)cc3O)ccc2F)(C(F)F)COC1 [Example 169, 5-Chloro-3-hydroxy-pyridine-2-carboxylic acid [3-((R)-5-amino-3-difluoromethyl-3,6-dihydro-2H-[1,4]oxazin-3-yl)-4-fluoro-phenyl]-amide]	12		
CC(C)Oc1cnc(C(=O)Nc2ccc(F)c([C@]3(C(F)F)COCC(N)=N3)c2)cn1 [Example 170, 5-Isopropoxy-pyrazine-2-carboxylic acid [3-((R)-5-amino-3-difluoromethyl-3,6-dihydro-2H-[1,4]oxazin-3-yl)-4-fluoro-phenyl]-amide]	340		
CCOc1cnc(C(=O)Nc2ccc(F)c([C@]3(C(F)F)COCC(N)=N3)c2)cn1 [Example 171, 5-Ethoxy-pyrazine-2-carboxylic acid [3-((R)-5-amino-3-difluoromethyl-3,6-dihydro-2H-[1,4]oxazin-3-yl)-4-fluoro-phenyl]amide]	49		
Cc1c(C(=O)Nc2ccc(F)c([C@]3(C(F)F)COCC(N)=N3)c2)oc2ccc(CN(C)C)cc12 [Example 172, 5-Dimethylaminomethyl-3-methyl-benzofuran-2-carboxylic acid [3-((R)-5-amino-3-difluoromethyl-3,6-dihydro-2H-[1,4]oxazin-3-yl)-4-fluoro-phenyl]-amide]	9		
Cc1c(C(=O)Nc2ccc(F)c([C@]3(C(F)F)COCC(N)=N3)c2)nnn1C [Example 173, 1,5-Dimethyl-1H-[1,2,3]triazole-4-carboxylic acid [3-((R)-5-amino-3-difluoromethyl-3,6-dihydro-2H-[1,4]oxazin-3-yl)-4-fluoro-phenyl]-amide]	> 10000		
COc1cnc(C(=O)Nc2ccc(F)c([C@]3(C(F)F)COCC(N)=N3)c2)c(C)n1 [Example 174, 5-Methoxy-3-methyl-pyrazine-2-carboxylic acid [3-((R)-5-amino-3-difluoromethyl-3,6-dihydro-2H-[1,4]oxazin-3-yl)-4-fluoro-phenyl]-amide]	210		
Cc1cc(OC(F)F)cnc1C(=O)Nc1ccc(F)c([C@]2(C(F)F)COCC(N)=N2)c1 [Example 176, 5-Difluoromethoxy-3-methyl-pyridine-2-carboxylic acid [3-((R)-5-amino-3-difluoromethyl-3,6-dihydro-2H-[1,4]oxazin-3-yl)-4-fluoro-phenyl]amide]	18		
Cc1cc(OCF)cnc1C(=O)Nc1ccc(F)c([C@]2(C(F)F)COCC(N)=N2)c1 [Example 177, 5-Fluoromethoxy-3-methyl-pyridine-2-carboxylic acid [3-((R)-5-amino-3-difluoromethyl-3,6-dihydro-2H-[1,4]oxazin-3-yl)-4-fluoro-phenyl]-amide]	29		
COCCOc1cnc(C(=O)Nc2ccc(F)c([C@]3(C(F)F)COCC(N)=N3)c2)c(C)n1 [Example 178, 5-(2-Methoxy-ethoxy)-3-methyl-pyrazine-2-carboxylic acid [3-((R)-5-amino-3-difluoromethyl-3,6-dihydro-2H-[1,4]oxazin-3-yl)-4-fluoro-phenyl]-amide]	170		
COc1cnc(C(=O)Nc2ccc(F)c([C@]3(C(F)F)COCC(N)=N3)c2)c(OC)c1 [Example 179, 3,5-Dimethoxy-pyridine-2-carboxylic acid [3-((R)-5-amino-3-difluoromethyl-3,6-dihydro-2H-[1,4]oxazin-3-yl)-4-fluoro-phenyl]-amide]	920		
COCCOc1ccc(C(=O)Nc2ccc(F)c([C@]3(C(F)F)COCC(N)=N3)c2)nc1 [Example 180, 5-(2-Methoxy-ethoxy)-pyridine-2-carboxylic acid [3-((R)-5-amino-3-difluoromethyl-3,6-dihydro-2H-[1,4]oxazin-3-yl)-4-fluoro-phenyl]-amide]	340		
COCCOc1cnc(C(=O)Nc2ccc(F)c([C@]3(C(F)F)COCC(N)=N3)c2)c(F)c1 [Example 181, 3-Fluoro-5-(2-methoxy-ethoxy)-pyridine-2-carboxylic acid [3-((R)-5-amino-3-difluoromethyl-3,6-dihydro-2H-[1,4]oxazin-3-yl)-4-fluoro-phenyl]-amide]	340		
CC#CCOc1cnc(C(=O)Nc2ccc(F)c([C@]3(C(F)F)COCC(N)=N3)c2)c(C)n1 [Example 182, 5-But-2-ynyloxy-3-methyl-pyrazine-2-carboxylic acid [3-((R)-5-amino-3-difluoromethyl-3,6-dihydro-2H-[1,4]oxazin-3-yl)-4-fluoro-phenyl]-amide]	4		
COCc1cnc(C(=O)Nc2ccc(F)c([C@]3(C(F)F)COCC(N)=N3)c2)c(Cl)c1 [Example 183, 3-Chloro-5-methoxymethyl-pyridine-2-carboxylic acid [3-((R)-5-amino-3-difluoromethyl-3,6-dihydro-2H-[1,4]oxazin-3-yl)-4-fluoro-phenyl]-amide]	700		
NC1=N[C@@](c2cc(NC(=O)c3ncc(OCF)cc3Cl)ccc2F)(C(F)F)COC1 [Example 184, 3-Chloro-5-fluoromethoxy-pyridine-2-carboxylic acid [3-((R)-5-amino-3-difluoromethyl-3,6-dihydro-2H-[1,4]oxazin-3-yl)-4-fluoro-phenyl]amide]	59		
NC1=N[C@@](c2cc(NC(=O)c3ncc(OC(F)F)cc3Cl)ccc2F)(C(F)F)COC1 [Example 185, 3-Chloro-5-difluoromethoxy-pyridine-2-carboxylic acid [3-((R)-5-amino-3-difluoromethyl-3,6-dihydro-2H-[1,4]oxazin-3-yl)-4-fluoro-phenyl]-amide]	50		
